Test results published in US20070027144A1, “Novel use of cannabinoid receptor agonist” (SHIONOGI & CO., LTD., priority 2003, published 2007).

What was measured:
BN rats [1] = experiment: Antigen-induced bronchial hyperresponsiveness in BN rats (acute model); type: in vivo, Brown Norway (BN) rats; conditions: oral once 1 h before antigen challenge, 10 mg/kg, P<0.01
Experimental: (§1) Antigen-induced bronchial hyperresponsiveness in BN rats: Brown Norway (BN) rats (Charles River Japan) were actively sensitized by the intraperitoneal injection of 1 mL mixture containing aluminum hydroxide gel (1 mg) and ovalbumin (0.1 mg, OVA). Ten days later, antigen challenge was performed by the inhalation of an aerosolized 1% OVA solution for 30 min using an ultrasonic nebulizer. ACh was intravenously injected to rats 24 h after antigen challenge under sodium pentobarbital anesthesia (80 mg/kg, i.p.) by increasing doses of ACh every 5 min, then bronchoconstrictor response observed immediately after each ACh injection was measured by the method of Konzett & Rössler with some modifications. Briefly, trachea of rats was incised and a cannula was attached to lung side. […] The insufflation pressure overflowed from inhalation tube was monitored by a pressure transducer (TP-400T, Nihon Kohden) and recorded on a recorder (WT-645G, Nihon Kohden) through a carrier amplifier (AP-601G, Nihon Kohden). […] The area under the curve (AUC) calculated from dose-response curve for ACh was compared between vehicle-treated control group and test compound-treated group, and then statistical significance was analyzed concerning inhibitory effect on bronchial hyperresponsiveness.

BN rats [2] = experiment: Antigen-induced airway inflammatory cell infiltration in BN rats (acute model); type: in vivo, Brown Norway (BN) rats; conditions: oral, P<0.01
Experimental: as §1, with “hyperresponsiveness. […]” for “hyperresponsiveness.”

BN rats [3] = experiment: Antigen-induced mucus secretion in BN rats (acute model); type: in vivo, Brown Norway (BN) rats; conditions: oral, 10 mg/kg, P<0.01
Experimental: as §1, with “hyperresponsiveness. […]” for “hyperresponsiveness.”

BN rats [4] = experiment: Antigen-induced bronchial hyperresponsiveness in BN rats (chronic model); type: in vivo; conditions: oral for 8 days
Experimental: Antigen-induced bronchial hyperresponsiveness in BN rats: Brown Norway (BN) rats (Charles River Japan) were actively sensitized by the intraperitoneal injection of 1 mL mixture containing aluminum hydroxide gel (1 mg) and ovalbumin (0.1 mg, OVA). Ten days later, antigen challenge was performed by the inhalation of an aerosolized 1% OVA solution for 30 min using an ultrasonic nebulizer. ACh was intravenously injected to rats 24 h after antigen challenge under sodium pentobarbital anesthesia (80 mg/kg, i.p.) by increasing doses of ACh every 5 min, then bronchoconstrictor response observed immediately after each ACh injection was measured by the method of Konzett & Rössler with some modifications. Briefly, trachea of rats was incised and a cannula was attached to lung side. An artificial respirator (SN-480-7, Shinano) was connected to the cannula, and then a fixed amount of air (tidal volume: 3 mL, ventilation frequency: 60 times/min) continuously insufflated to maintain respiration. The insufflation pressure overflowed from inhalation tube was monitored by a pressure transducer (TP-400T, Nihon Kohden) and recorded on a recorder (WT-645G, Nihon Kohden) through a carrier amplifier (AP-601G, Nihon Kohden). Test compounds were administered orally once 1 h before antigen challenge. The area under the curve (AUC) calculated from dose-response curve for ACh was compared between vehicle-treated control group and test compound-treated group, and then statistical significance was analyzed concerning inhibitory effect on bronchial hyperresponsiveness.
(§2) Antigen-induced bronchial hyperresponsiveness in BN rats: BN rats were actively sensitized by the intraperitoneal injection of a mixture containing aluminum hydroxide gel and ovalbumin. Twelve days later, antigen challenge was performed by the inhalation of an aerosolized 1% OVA solution or physiological saline for 30 min using an ultrasonic nebulizer (NE-U12, Omron). […] Inhibitory effect on bronchial hyperresponsiveness was evaluated 24 h after last antigen challenge by the method described in the section of Experimental Example 1.

guinea pigs [5] = experiment: Antigen-induced bronchial hyperresponsiveness in guinea pigs (acute model); type: in vivo; conditions: oral 1 h before antigen challenge
Experimental: (§3) Antigen-induced bronchial hyperresponsiveness in guinea pigs: Guinea pigs (Charles River Japan) held in an exposure chamber were actively sensitized by the inhalation of an aerosolized 1% OVA solution for 10 min using an ultrasonic nebulizer (NE-U12, Omron) twice with an interval of 1 week. One week later, antigen challenge was performed by inhalation of an aerosolized 1% OVA generated by an ultrasonic nebulizer for 5 min. Test compounds were administered orally 1 h before antigen challenge. In addition, guinea pigs were treated with diphenhydramine (10 mg/kg, i.p.), an antihistamine, to protect the animals from anaphylactic death 10 min before antigen challenge. ACh was intravenously injected to guinea pigs 24 h after antigen challenge under urethane anesthesia (1.4 g/kg, i.p.) by increasing doses of ACh every 5 min, then bronchoconstrictor response observed immediately after each ACh injection was measured by the method of Konzett & Rössler with some modifications. Briefly, trachea of guinea pigs was incised and a cannula was attached to the lung side. An artificial respirator (SN-480-7, Shinano) was connected to the cannula, and then a fixed amount of air (tidal volume: 4 mL, ventilation frequency: 60 times/min) continuously insufflated to maintain respiration. The insufflation pressure overflowed from inhalation tube was monitored by a pressure transducer (TP-400T, Nihon Kohden) and recorded on a recorder (WT-645G, Nihon Kohden) through a carrier amplifier (AP-601G, Nihon Kohden). The area under the curve (AUC) calculated from dose-response curve for ACh was compared between vehicle-treated control group and test compound-treated group, and then statistical significance was analyzed concerning inhibitory effect on bronchial hyperresponsiveness.

guinea pigs [6] = experiment: Antigen-induced airway inflammatory cell infiltration in guinea pigs (acute model); type: in vivo; conditions: oral
Experimental: as §3, with “An artificial respirator (SN-480-7, Shinano) was connected to the cannula, and then a fixed amount of air (tidal volume: 4 mL, ventilation frequency: 60 times/min) continuously insufflated to maintain respiration.” left out
(§4) Antigen-induced airway inflammatory cell infiltration in guinea pigs: After finishing experiment mentioned above, the lungs are washed 3 times with 10 mL of physiological saline through tracheal cannula using injection syringe. Then the cell number in the washing was determined. […] Differential cell counts were performed after May-Grünwald-Giemsa staining, and then statistical significance was analyzed concerning inhibitory effect on airway inflammatory cell infiltration.

guinea pigs [7] = experiment: Bronchodilating effect in guinea pigs (ACh-induced bronchoconstriction); type: in vivo; conditions: oral 1 h before ACh injection, 10 mg/kg, P<0.01
Experimental: Under urethane anesthesia (1.4 g/kg, i.p.), ACh was intravenously injected to guinea pigs by increasing doses of ACh every 5 min, then bronchoconstrictor response observed immediately after each ACh injection was measured by the method of Konzett & Rössler with some modifications. Briefly, trachea of guinea pigs was incised and a cannula was attached to the lung side. An artificial respirator (SN-480-7, Shinano) was connected to the cannula, and then a fixed amount of air (tidal volume: 4 mL, ventilation frequency: 60 times/min) continuously insufflated to maintain respiration. The insufflation pressure overflowed from inhalation tube was monitored by a pressure transducer (TP-400T, Nihon Kohden) and recorded on a recorder (WT-645G, Nihon Kohden) through a carrier amplifier (AP-601G, Nihon Kohden). Test compounds were administered orally 1 h before ACh injection, then the effect on the dose-response curve of ACh was examined. Statistical significance was analyzed concerning broncohdilating effect in guinea pigs.

BN rats [8] = experiment: Antigen-induced airway inflammatory cell infiltration in BN rats (chronic model); type: in vivo; conditions: oral for 8 days, 100 mg/kg, P<0.01
Experimental: as §2, with “Omron). To establish chronic bronchial hyerreactivity model, this procedure was repeated 3 times with 1-week intervals. Test compounds were administered orally for 8 days from the day of third antigen challenge. On the day of third antigen challenge, test compounds were administered 1 h before challenge.” for “Omron).”
as §4, with “BN rats:” for “guinea pigs:”, “were” for “are”, “5” for “10”, “infiltration as in the section of Experimental Example 2.” for “infiltration.”

guinea pigs [9] = experiment: Antigen-induced bronchial hyperresponsiveness in guinea pigs (chronic model); type: in vivo; conditions: oral for 8 days, 30 mg/kg, P<0.05
Experimental: as §3, with “An artificial respirator (SN-480-7, Shinano) was connected to the cannula, and then a fixed amount of air (tidal volume: 4 mL, ventilation frequency: 60 times/min) continuously insufflated to maintain respiration.” left out, “The area under the curve (AUC) calculated from dose-response curve for ACh was compared between vehicle-treated control group and test compound-treated group, and then statistical significance was analyzed concerning inhibitory effect on bronchial hyperresponsiveness.” left out

guinea pigs [10] = experiment: Antigen-induced airway inflammatory cell infiltration in guinea pigs (chronic model); type: in vivo; conditions: oral for 8 days, 30 mg/kg, P<0.01
Experimental: (§5) Antigen-induced bronchial hyperresponsiveness in guinea pigs: Guinea pigs held in an exposure chamber were actively sensitized by the inhalation of an aerosolized 1% OVA solution for 10 min using an ultrasonic nebulizer (NE-U12, Omron) twice with an interval of 1 week. One week and 2 weeks later, antigen challenge was performed twice by inhalation of an aerosolized 1% OVA generated by an ultrasonic nebulizer for 5 min. Test compounds were administered orally for 8 days from the day of first antigen challenge. On the day of each antigen challenge, test compounds were administered 1 h before challenge. […] Inhibitory effect on bronchial hyperresponsiveness was evaluated 24 h after last antigen challenge by the method described in the section of Experimental Example 7. The area under the curve (AUC) calculated from dose-response curve for ACh was compared between vehicle-treated control group and test compound-treated group, and then statistical significance was analyzed concerning inhibitory effect on bronchial hyperresponsiveness.
Antigen-induced airway inflammatory cell infiltration in guinea pigs: After finishing experiment mentioned above, the lungs are washed 3 times with 10 mL of physiological saline through tracheal cannula using injection syringe. Then the cell number in the washing was determined. […]

guinea pigs [11] = experiment: Antigen-induced mucus secretion in guinea pigs (chronic model); type: in vivo; conditions: oral for 8 days, 30 mg/kg, P<0.01
Experimental: as §5
Antigen-induced mucus secretion in guinea pigs: After measurement of bronchial hyperresponsiveness, the lungs are washed 3 times with 10 mL of physiological saline through tracheal cannula using injection syringe, and then the washing was centrifuged. […] Statistical significance was analyzed concerning inhibitory effect on mucus secretion.

CCCCn1c2c(cc(C(=O)NC(C)(C)c3ccccc3)c1=O)CCCCCC2 [Compound 4-320]
significant effect: inhibitory effect on bronchial hyperresponsiveness (AUC of ACh dose-response curve vs vehicle) (BN rats [1]) | inhibitory effect on airway inflammatory cell infiltration (BN rats [2]; 1 mg/kg) | inhibitory effect on airway inflammatory cell infiltration (BN rats [2]; 10 mg/kg) | inhibitory effect on mucus secretion (mucin levels in lung washing) (BN rats [3]) | inhibitory effect on bronchial hyperresponsiveness (BN rats [4]; 3 mg/kg, P<0.01) | inhibitory effect on bronchial hyperresponsiveness (AUC of ACh dose-response curve vs vehicle) (guinea pigs [5]; 1 mg/kg, P<0.01) | inhibitory effect on bronchial hyperresponsiveness (AUC of ACh dose-response curve vs vehicle) (guinea pigs [5]; 10 mg/kg, P<0.05) | inhibitory effect on airway inflammatory cell infiltration (guinea pigs [6]; 1 mg/kg, P<0.05) | inhibitory effect on airway inflammatory cell infiltration (guinea pigs [6]; 10 mg/kg, P<0.01) | bronchodilating effect (effect on the dose-response curve of ACh) (guinea pigs [7])

CSC(=S)N1CC2(CCCCC2)CS/C1=N\c1ccc(OC(F)(F)F)cc1 [Compound I-12]
significant effect: inhibitory effect on bronchial hyperresponsiveness (BN rats [4]; 30 mg/kg, P<0.01) | inhibitory effect on bronchial hyperresponsiveness (BN rats [4]; 100 mg/kg, P<0.05) | inhibitory effect on airway inflammatory cell infiltration (BN rats [8]) | inhibitory effect on bronchial hyperresponsiveness (AUC of ACh dose-response curve vs vehicle) (guinea pigs [5]; 10 mg/kg, P<0.05) | inhibitory effect on airway inflammatory cell infiltration (guinea pigs [6]; 10 mg/kg, P<0.05) | inhibitory effect on bronchial hyperresponsiveness (AUC of ACh dose-response curve vs vehicle) (guinea pigs [9]) | inhibitory effect on airway inflammatory cell infiltration (guinea pigs [10]) | inhibitory effect on mucus secretion (mucin levels in lung washing) (guinea pigs [11])
